In publication PMC9814792 (Communications Chemistry, 2022):

Key:
[1] = system: HCT116 and HCT116/OxR cells; assay: Cellular GSH content (GSH/GSSG-Glo); type: cell-based, human; details: 24 h exposure, single agent
Experimental: GSH levels in HCT116 and HCT116/OxR cells (7.5 × 10^4 cells per well in 96-well plates, in triplicate), or in CT26 tumor tissues (25–50 mg/sample) were determined using the luminescence-based detection system GSH/GSSG-Glo^TM assay (Promega, Madison, WI) following the manufacturer’s recommendations. Quantifications are based on the comparison with a GSH standard curve delivered in the assay and normalized to the total protein content of the samples determined by the Micro BCA^TM protein assay kit (Thermo Scientific).

CT26 allografts = assay: In vivo anticancer activity, CT26 allografts; parameters: species or system BALB/c mice
Experimental: Eight-to nine-week-old female BALB/c mice bred in-house (originally Janvier) were kept in pathogen-free conditions and controlled environment with 12 h light-dark cycle. CT26 cells (5 × 10^5 in 50 µL serum-free RPMI medium) were injected subcutaneously (s.c.) into the right flank of the animals. […] Tumor growth was evaluated by daily recording of tumor size by caliper measurement. […] The reasons were primarily either enhanced tumor size or ulceration. For drug distribution (digestion and ICP-MS measurement details see below), histological and GSH determination experiments, mice were treated twice during one week and sacrificed 24 h after the last drug dosing. The animal experiments were performed according to the regulations of the Ethics Committee for the Care and Use of Laboratory Animals at the Medical University Vienna (proposal number BMBWF-V/3b 2020-0.380.502).

CT26 cells = assay: 72 h cell viability (MTT) assay; type: cell-based, murine; details: CT26, 72 h
Experimental: Cells were seeded (3–4 ×10^3 cells/well) in 96-well plates in 100 µL and after 24 h recovery treated with 100 µL of compounds at the indicated concentrations in triplicates. After 72 h drug exposure cell viability was determined by 3-(4,5-dimethylthiazol-2-yl)-2,5-diphenyltetrazolium bromide (MTT)-vitality assay (EZ4U, Biomedica, Vienna, Austria) following the manufacturer’s recommendations, as published. Absorbance was measured at 450 nm (at 620 nm as reference) using the multimode plate reader Tecan Infinite 200 Pro (Zurich, Switzerland). Cytotoxicity was expressed as IC50 values calculated from full dose-response curves using the 4 parameter nonlinear regression model of GraphPad Prism 8 software (La Jolla, CA, USA).

In the case of `CCCCS(=N)(=O)CCC(NC(=O)[O][Pt]1([O]C(C)=O)[O]C(=O)C(=O)[O]1)C(=O)O.NC1CCCCC1N` (mixture of isomers) [BSO-OxOAc, (OC-6-34)-Acetato(((1 S)-3-(butylsulfonimidoyl)-1-carboxypropyl)carbamato)((1 R,2 R)-1,2-cyclohexanediamino)oxalatoplatinum(IV)], the “impact on cellular GSH content” value [1] is reported as “moderately”, the “tumor doubling time extended” value (CT26 allografts; CT26 allografts, twice a week for two weeks, equimolar doses) is reported as 1.2 fold and the “maximal tumor growth inhibition” value (CT26 allografts; day 11, CT26 allografts, twice a week for two weeks, equimolar to 9 mg/kg oxaliplatin i.v.) is reported as 51.3%. The “tumor volumes as compared to solvent controls” value (CT26 allografts; first two weeks of treatment) was “significantly reduced tumor volumes” and the “higher IC50 value as compared to oxaliplatin” value (CT26 cells) was > 58 fold.
